From paper PMC6199744, “Development of Chemical Proteomics for the Folateome and Analysis of the Kinetoplastid Folateome” (ACS Infectious Diseases, 2018)
Like-named read-outs stand apart in the source and are kept apart here.

Test system: T. brucei lysate proteins
Assay type: binding, Trypanosoma brucei
Details: vehicle control = 1

NCCCNc1ccc(C(=O)NC(CCC(=O)O)C(=O)O)cc1 (centres unmarked) [compound 7] was tested, and the “fold change vs vehicle control” value (protein TB427.04.760 GAMMA-ADAPTIN 1, PUTATIVE) was 0.84, the fold change (protein TB427.05.1210 SHORT-CHAIN DEHYDROGENASE, PUTATIVE) was 0.95 and the “fold change vs vehicle control” value (protein TB427.05.1320 HY[…], CONSERVED) was 0.92. For the same compound, the fold change (protein TB427.05.3030 INTR[…] PROTEIN IFT122, PUTATIVE) was 0.96, the “fold change vs vehicle control” value (protein TB427.05.4560 GUANINE DEAMINASE, PUTATIVE) was 0.91 and the “fold change vs vehicle control” value (protein TB427.06.1070 HY[…], CONSERVED) was 1.17. The fold change (protein TB427.06.2550 RNA-BINDING PROTEIN, PUTATIVE) was 1.51, the fold change (protein TB427.06.3500 ENDOSOMAL T[…] RME-8, PUTATIVE) was 0.89 and the fold change (protein TB427.06.3630 SPHINGOSINE 1-PHOSPHATE LYASE, PUTATIVE) was 0.95. The fold change (protein TB427.06.3650 ADP-RI[…], PUTATIVE) was 0.97, the fold change (protein TB427.06.3670 PAR[…] COMPONENT, PUTATIVE) was 1 and the fold change (protein TB427.06.700 ALANYL-TRNA SYNTHETASE, PUTATIVE) was 0.84. For the same compound, the “fold change vs vehicle control” value (protein TB427.07.1300 PROTEIN DISULFIDE ISOMERASE, PUTATIVE) was 1.3, the “fold change vs vehicle control” value (protein TB427.07.3160 DYNEIN HEAVY CHAIN, CYTOSOLIC, PUTATIVE) was 0.87 and the fold change (protein TB427.07.3980 IMMU[…], PUTATIVE) was 0.91. For the same compound, the “fold change vs vehicle control” value (protein TB427.07.4170 FATTY ACID ELONGASE, PUTATIVE) was 0.97, the fold change (protein TB427.07.4180 FATTY ACID ELONGASE, PUTATIVE) was 1.1 and the fold change (protein TB427.07.4970 GLUTAMINE SYNTHETASE, PUTATIVE) was 0.98. For the same compound, the “fold change vs vehicle control” value (protein TB427.07.7500 THYMINE-7-HYDROXYLASE, PUTATIVE) was 0.95, the “fold change vs vehicle control” value (protein TB427.08.1210 HY[…], CONSERVED) was 1.49 and the fold change (protein TB427.08.2060 HY[…], CONSERVED) was 0.91. For the same compound, the fold change (protein TB427.08.2080 HY[…], CONSERVED) was 0.91, the fold change (protein TB427.08.3150 T-COMPLEX PROTEIN 1, GAMMA SUBUNIT, PUTATIVE) was 0.97 and the fold change (protein TB427.08.4210 HY[…], CONSERVED) was 0.91. The fold change (protein TB427.08.5760 HY[…], CONSERVED) was 0.99, the fold change (protein TB427.10.10350 PROTEIN KINASE, PUTATIVE) was 0.62 and the fold change (protein TB427.10.10360 MICROTUBULE-[…], PUTATIVE) was 0.85. The fold change (protein TB427.10.1060 T-COMPLEX PROTEIN 1, DELTA SUBUNIT, PUTATIVE) was 0.96, the “fold change vs vehicle control” value (protein TB427.10.10610 PROTEIN TYROSINE PHOSPHATASE, PUTATIVE) was 1.47 and the fold change (protein TB427.10.1070 CELL DIVISION PROTEIN KINASE 2 HOMOLOG 1 (CRK1)) was 0.93. The “fold change vs vehicle control” value (protein TB427.10.11760 PUMILIO/PUF RNA BINDING PROTEIN 6) was 0.99, the fold change (protein TB427.10.12710 HEAT SHOCK PROTEIN, PUTATIVE) was 0.77 and the “fold change vs vehicle control” value (protein TB427.10.12820 HY[…], CONSERVED) was 0.93. For the same compound, the “fold change vs vehicle control” value (protein TB427.10.12890 BI[…]-TRNA SYNTHETASE, PUTATIVE) was 0.98, the fold change (protein TB427.10.14140 PYRUVATE KINASE 1) was 0.86 and the “fold change vs vehicle control” value (protein TB427.10.14180 PROTEIN TRANSPORT PROTEIN SEC13, PUTATIVE) was 0.89. For the same compound, the “fold change vs vehicle control” value (protein TB427.10.14470 INTR[…] PROTEIN IFT140, PUTATIVE) was 1.33, the fold change (protein TB427.10.1450 HY[…], CONSERVED) was 0.88 and the fold change (protein TB427.10.14860 HY[…], CONSERVED) was 0.95. For the same compound, the “fold change vs vehicle control” value (protein TB427.10.14950 RNA BINDING PROTEIN, PUTATIVE) was 1.37, the fold change (protein TB427.10.2350 PYRUVATE DEH[…] E3 BINDING PROTEIN, PUTATIVE) was 0.93 and the fold change (protein TB427.10.2440 METACASPASE MCA4) was 0.83. The “fold change vs vehicle control” value (protein TB427.10.3470 HY[…], CONSERVED) was 1.2, the fold change (protein TB427.10.4610 […]-MANNOSE SYNTHASE, PUTATIVE) was 0.98 and the “fold change vs vehicle control” value (protein TB427.10.5810 HY[…], CONSERVED) was 0.88. For the same compound, the fold change (protein TB427.10.5840 T[…] 1-BETA, PUTATIVE) was 0.92, the fold change (protein TB427.10.5850 HY[…], CONSERVED) was 0.88 and the fold change (protein TB427.10.6150 […]/BEIGE PROTEIN, PUTATIVE) was 0.99. For the same compound, the fold change (protein TB427.10.6310 MAJOR VAULT PROTEIN, PUTATIVE) was 0.93, the fold change (protein TB427.10.730 ATP SYNTHASE, PUTATIVE) was 0.84 and the “fold change vs vehicle control” value (protein TB427.10.7410 SUCCINYL-COA LIGASE GDP-FORMING] BETA-CHAIN, PUTATIVE) was 0.94. For the same compound, the fold change (protein TB427.10.8190 T-COMPLEX PROTEIN 1, THETA SUBUNIT, PUTATIVE) was 0.94, the “fold change vs vehicle control” value (protein TB427.10.8230 PROTEIN DISULFIDE ISOMERASE) was 1.25 and the fold change (protein TB427.10.8720 HY[…], CONSERVED) was 1. For the same compound, the “fold change vs vehicle control” value (protein TB427.10.8850 HY[…], CONSERVED) was 0.93, the fold change (protein TB427.10.9890 HY[…], CONSERVED) was 0.65 and the fold change (protein TB927.10.12960 RAS-RELATED PROTEIN RAB-5) was 0.98. The fold change (protein TB927.10.1550 […]-ATP-ASE SUBUNIT 5) was 0.9, the fold change (protein TB927.1.2330 BETA TUBULIN) was 0.99 and the “fold change vs vehicle control” value (protein TB927.10.2890 ENOLASE) was 0.91. The fold change (protein TB927.10.3660 ASPARTATE AMINOTRANSFERASE) was 0.96, the fold change (protein TB927.10.4180 TFIIF-[…] PHOSPHATASE, PUTATIVE) was 0.87 and the fold change (protein TB927.10.5500 HY[…], CONSERVED) was 0.99. The fold change (protein TB927.10.6050 CLATHRIN HEAVY CHAIN) was 0.87, the “fold change vs vehicle control” value (protein TB927.10.8030 HY[…], CONSERVED) was 1 and the “fold change vs vehicle control” value (protein TB927.10.8940 HY[…], CONSERVED) was 0.97. The fold change (protein TB927.2.100 RETRO[…] SPOT (RHS) PROTEIN, PUTATIVE,RETRO[…] SPOT PROTEIN 1 (RHS1), PUTATIVE) was 0.9, the “fold change vs vehicle control” value (protein TB927.2.2440 […]-ATPASE SUBUNIT 6) was 1.85 and the fold change (protein TB927.2.3800 MRNA […], PUTATIVE) was 0.77. The fold change (protein TB927.3.1240 PROTEIN PHOSPHATASE 2A, PUTATIVE) was 0.77, the “fold change vs vehicle control” value (protein TB927.3.2960 INOSINE-ADENOSINE-GUANOSINE-[…]) was 0.82 and the fold change (protein TB927.3.3190 SERINE/THREONINE-PROTEIN KINASE, PUTATIVE) was 0.89. The “fold change vs vehicle control” value (protein TB927.3.3450 ADP-RI[…]-LIKE PROTEIN 3A, PUTATIVE) was 0.76, the fold change (protein TB927.3.3780 TRYPAREDOXIN) was 0.9 and the “fold change vs vehicle control” value (protein TB927.3.5120 HY[…], CONSERVED (Ankyrin repeats (3 copies), putative)) was 1.2. For the same compound, the “fold change vs vehicle control” value (protein TB927.3.740 HY[…], CONSERVED) was 0.97, the fold change (protein TB927.4.3590 T[…] 1-BETA, PUTATIVE) was 0.77 and the fold change (protein TB927.5.3220 SIGNAL PEPTIDASE TYPE I, PUTATIVE) was 0.9. For the same compound, the “fold change vs vehicle control” value (protein TB927.5.4440 DYNEIN LIGHT CHAIN, PUTATIVE) was 1.1, the fold change (protein TB927.6.2200 HY[…], CONSERVED) was 0.97 and the fold change (protein TB927.6.4460 S-ADENOSYLMETHIONINE DECARBOXYLASE) was 0.97. For the same compound, the “fold change vs vehicle control” value (protein TB927.6.560 CYSTEINE PEPTIDASE C (CPC)) was 1, the “fold change vs vehicle control” value (protein TB927.7.4470 HY[…], CONSERVED) was 1.22 and the fold change (protein TB927.7.6320 HY[…], CONSERVED) was 0.96. The “fold change vs vehicle control” value (protein TB927.7.7430 ATP SYNTHASE ALPHA CHAIN, MIT[…]) was 0.93, the fold change (protein TB927.8.1990 PEROXIDOXIN) was 0.67 and the “fold change vs vehicle control” value (protein TB927.8.4810 PROHIBITIN 1) was 0.99. The fold change (protein TB927.8.890 SMALL GTP-BINDING PROTEIN RAB1, PUTATIVE) was 0.93 and the fold change (protein TB-292 MEMBRANE ASSOCIATED PROTEIN) was 0.93.
